Non-standard residues stand in square brackets, D forms with d. Residues, ends and D or L forms follow the SMILES beside them. *: point of attachment. pNA = O=[N+]([O-])c1ccc(N*)cc1; βAla = NCCC(=O)O
Legend:
thrombin [1] = molecular target: T1, thrombin (Homo sapiens, UniProt P00734); test: Thrombin generation test / determination of the endogenous thrombin potential in defibrinated platelet-poor plasma; assay type: biochemical; settings: for course of substrate conversion curve after termination of thrombin formation and inhibition: extinction at 405 nm; for reaction kinetics / substrate consumption in a thrombin generation test: compared with H-β-Ala-Gly-Arg-pNA and dextran-β-Ala-Gly-Arg-pNA
Description: The thrombin generation was started by addition of 30 μl of Innovin® (reagent comprising recombinant human tissue factor and a mixture of synthetic phospholipids; Dade Behring Marburg GmbH, Germany) and 15 μl of CaCl2 [250 mM]. Measurement was started simultaneously. The change in extinction was monitored for at least 20 minutes in a Behring coagulation system BCS® system (Dade Behring Marburg GmbH, Marburg, Germany) at a wavelength of λ=405 nm (see FIG. 2).
For comparison purposes, the determination of the endogenous thrombin potential was carried out in parallel using the uncoupled substrate H-β-Ala-Gly-Arg-pNA. The substrate solution used for this contained 1 mM H-β-Ala-Gly-Arg-pNA (see FIG. 1).

thrombin [2] = molecular target: T1, thrombin; test: Kinetic properties of thrombin substrates (Km, Vmax, Kcat, Kcat/Km)

Row | Compound | course of substrate conversion curve after termination of thrombin formation and inhibition (thrombin [1]; plasma sample) | reaction kinetics / substrate consumption in a thrombin generation test (thrombin [1]) | also measured
1 | N=C(N)NCCC[C@H](NC(=O)CNC(=O)CCN)C(=O)Nc1ccc([N+](=O)[O-])cc1 [H-β-Ala-Gly-Arg-pNA 2AcOH] (H-[βAla]-Gly-Arg-pNA) | changes to a uniform, steady and linear increase, instead of reaching a plateau phase | – | cleavage by α2-macroglobulin-bound thrombin (thrombin [1]; plasma sample): cleavage of the small molecular weight peptide substrate by α2-macroglobulin-bound thrombin; Km (thrombin [2]; Michaelis constant, substrate affinity to thrombin): 2200 µM; Vmax (thrombin [2]; maximum reaction rate): 16 U; Kcat (thrombin [2]; turnover number): 17.4 s⁻¹
2 | Dextran-D-CHG-Ala-Arg-pNA | – | substrate consumption rapidly occurs | –
3 | Dextran-D-CHG-Gly-Arg-pNA | – | substrate consumption rapidly occurs | –
4 | Dextran-β-Ala-Gly-Arg-pNA | reaches a plateau phase | – | –

From patent US20080076183A1, “Polysaccharide-peptide conjugates for use as thrombin substrates” (Dade Behring Marburg GmbH, priority 2006, published 2008)
